Laboratory results as given in patent US20250122219A1 (priority 2023, published 2025).

What was measured:
[1] = Cytotoxicity assay in MT-4 cells; type: cell-based; settings: human; uninfected MT-4 cells, 5 days incubation, Cell Titer Glo; read-out: MT4 CC50
Protocol: (§1) Compounds were tested in a high-throughput 384-well assay format for their ability to inhibit the replication of HIV-1 (IIIB) in MT-4 cells. Compounds were serially diluted (1.3) in DMSO on 384-well polypropylene plates and further diluted 200-fold into complete RPMI media (10% FBS, 1% P/S) using the Biotek Micro Flow and Labcyte ECHO acoustic dispenser. Each plate contained up to 8 test compounds, with negative (No Drug Control) and 5 μM AZT positive controls. MT-4 cells were pre-infected with 10 μL of either RPMI (mock-infected) or a fresh 1:250 dilution of HIV-1 IIIB concentrated virus stock. Infected and uninfected MT-4 cells were further diluted in complete RPMI media and added to each plate using a Micro Flow dispenser. After 5 days incubation in a humidified and temperature controlled incubator (37° C.), Cell Titer Glo (Promega) was added to the assay plates and chemiluminescence read using an Envision plate-reader.
Assays were performed as above except uninfected MT-4 cells were added to each well containing test compound. In addition, […] puromycin was added to the last column of each assay plate to assess a base level of cytotoxicity.

HIV-1 (IIIB) = assay: Antiviral assay in MT-4 cells; type: cell-based; settings: Human immunodeficiency virus 1, MT4, 120 h; HIV-1 IIIB in MT-4 cells, 5 days incubation, Cell Titer Glo; read-out: MT4 EC50
Protocol: as §1

Row | SMILES | CC50 at 5 days [1] [µM] | EC50 (HIV-1 (IIIB)) [µM]
1 | COCCOCCOCCOCCOCCOCCOCCOC(=O)Oc1c2n(cc(C(=O)NCc3ccc(F)cc3F)c1=O)[C@@H]1CN(C2=O)[C@@H](C)CC[C@]12CC(C)=NO2 [Example 162, (3′S,5S,7′R)-10′-((2,4-difluorobenzyl)carbamoyl)-3,3′-dimethyl-1′,11′-dioxo-1′,4′,5′,11′-tetrahydro-3′H,4H,7′H-spiro[isoxazole-5,6′-[2,7]methanopyrido[1,2-a][1,4]diazonin]-12′-yl (2,5,8,11,14,17,20-heptaoxadocosan-22-yl) carbonate] | 27.8 | 0.00242
2 | CCCCCCCCCCCCCCCCOC(=O)Oc1c2n(cc(C(=O)NCc3ccc(F)cc3F)c1=O)[C@@H]1CN(C2=O)[C@@H](C)CC[C@]12CC(C)=NO2 [Example 144, (3′S,5S,7′R)-10′-((2,4-difluorobenzyl)carbamoyl)-3,3′-dimethyl-1′,11′-dioxo-1′,4′,5′,11′-tetrahydro-3′H,4H,7′H-spiro[isoxazole-5,6′-[2,7]methanopyrido[1,2-a][1,4]diazonin]-12′-yl hexadecyl carbonate] | ≥ 50 | 0.0069
3 | COC1=NO[C@@]2(CC[C@H](C)N3C[C@H]2n2cc(C(=O)NCc4ccc(F)cc4F)c(=O)c(OCOC(=O)OCC(C)C)c2C3=O)C1 [Example 200, (((3′S,5S,7′R)-10′-((2,4-difluorobenzyl)carbamoyl)-3-methoxy-3′-methyl-1′,11′-dioxo-1′,4′,5′,11′-tetrahydro-3′H,4H,7′H-spiro[isoxazole-5,6′-[2,7]methanopyrido[1,2-a][1,4]diazonin]-12′-yl)oxy)methyl isobutyl carbonate] | 15.2 | 0.0019
4 | CCCCCCCCCCCCCC(=O)Oc1c2n(cc(C(=O)NCc3ccc(F)cc3F)c1=O)[C@@H]1CN(C2=O)[C@@H](C)CC[C@]12CC(C)=NO2 [Example 13, (3′S,5S,7′R)-10′-((2,4-difluorobenzyl)carbamoyl)-3,3′-dimethyl-1′,11′-dioxo-1′,4′,5′,11′-tetrahydro-3′H,4H,7′H-spiro[isoxazole-5,6′-[2,7]methanopyrido[1,2-a][1,4]diazonin]-12′-yl tetradecanoate] | 13.4 | 0.00484
5 | CCCCC(=O)OCOc1c2n(cc(C(=O)NCc3ccc(F)cc3F)c1=O)[C@@H]1CN(C2=O)[C@@H](C)CC[C@]12CC(C)=NO2 [Example 90, (((3′S,5S,7′R)-10′-((2,4-difluorobenzyl)carbamoyl)-3,3′-dimethyl-1′,11′-dioxo-1′,4′,5′,11′-tetrahydro-3′H,4H,7′H-spiro[isoxazole-5,6′-[2,7]methanopyrido[1,2-a][1,4]diazonin]-12′-yl)oxy)methyl pentanoate] | 18.2 | 0.000176
6 | CCCCCCCCCCCC(=O)Oc1c2n(cc(C(=O)NCc3ccc(F)cc3F)c1=O)[C@@H]1CN(C2=O)[C@@H](C)CC[C@]12CC(OC)=NO2 [Example 46, (3′S,5S,7′R)-10′-((2,4-difluorobenzyl)carbamoyl)-3-methoxy-3′-methyl-1′,11′-dioxo-1′,4′,5′,11′-tetrahydro-3′H,4H,7′H-spiro[isoxazole-5,6′-[2,7]methanopyrido[1,2-a][1,4]diazonin]-12′-yl dodecanoate] | 36.2 | 0.00206
7 | COC1=NO[C@@]2(CC[C@H](C)N3C[C@H]2n2cc(C(=O)NCc4ccc(F)cc4F)c(=O)c(OCOC(C)=O)c2C3=O)C1 [Example 83, (((3′S,5S,7′R)-10′-((2,4-difluorobenzyl)carbamoyl)-3-methoxy-3′-methyl-1′,11′-dioxo-1′,4′,5′,11′-tetrahydro-3′H,4H,7′H-spiro[isoxazole-5,6′-[2,7]methanopyrido[1,2-a][1,4]diazonin]-12′-yl)oxy)methyl acetate] | 16 | 0.00269
8 | CCCCCCC(=O)OCOc1c2n(cc(C(=O)NCc3ccc(F)cc3F)c1=O)[C@@H]1CN(C2=O)[C@@H](C)CC[C@]12CC(OC)=NO2 [Example 93, (((3′S,5S,7′R)-10′-((2,4-difluorobenzyl)carbamoyl)-3-methoxy-3′-methyl-1′,11′-dioxo-1′,4′,5′,11′-tetrahydro-3′H,4H,7′H-spiro[isoxazole-5,6′-[2,7]methanopyrido[1,2-a][1,4]diazonin]-12′-yl)oxy)methyl heptanoate] | 19.5 | 0.00263
9 | CCC(C)C(=O)Oc1c2n(cc(C(=O)NCc3ccc(F)cc3F)c1=O)[C@@H]1CN(C2=O)[C@@H](C)CC[C@]12CC(C)=NO2 (stereo partly drawn) [Example 51, (3′S,5S,7′R)-10′-((2,4-difluorobenzyl)carbamoyl)-3,3′-dimethyl-1′,11′-dioxo-1′,4′,5′,11′-tetrahydro-3′H,4H,7′H-spiro[isoxazole-5,6′-[2,7]methanopyrido[1,2-a][1,4]diazonin]-12′-yl 2-methylbutanoate] | 20 | –
10 | COC[C@H](C)OC(=O)OCOc1c2n(cc(C(=O)NCc3ccc(F)cc3F)c1=O)[C@@H]1CN(C2=O)[C@@H](C)CC[C@]12CC(C)=NO2 [Example 215, (((3′S,5S,7′R)-10′-((2,4-difluorobenzyl)carbamoyl)-3,3′-dimethyl-1′,11′-dioxo-1′,4′,5′,11′-tetrahydro-3′H,4H,7′H-spiro[isoxazole-5,6′-[2,7]methanopyrido[1,2-a][1,4]diazonin]-12′-yl)oxy)methyl ((S)-1-methoxypropan-2-yl) carbonate] | ≥ 50 | –
11 | COC1=NO[C@@]2(CC[C@H](C)N3C[C@H]2n2cc(C(=O)NCc4ccc(F)cc4F)c(=O)c(OC(=O)OCCCCCCC(C)C)c2C3=O)C1 [Example 159, (3′S,5S,7′R)-10′-((2,4-difluorobenzyl)carbamoyl)-3-methoxy-3′-methyl-1′,11′-dioxo-1′,4′,5′,11′-tetrahydro-3′H,4H,7′H-spiro[isoxazole-5,6′-[2,7]methanopyrido[1,2-a][1,4]diazonin]-12′-yl (7-methyloctyl) carbonate] | 35.9 | –
12 | CC1=NO[C@@]2(CC[C@H](C)N3C[C@H]2n2cc(C(=O)NCc4ccc(F)cc4F)c(=O)c(OCOC(=O)C(C)C)c2C3=O)C1 [Example 109, (((3′S,5S,7′R)-10′-((2,4-difluorobenzyl)carbamoyl)-3,3′-dimethyl-1′,11′-dioxo-1′,4′,5′,11′-tetrahydro-3′H,4H,7′H-spiro[isoxazole-5,6′-[2,7]methanopyrido[1,2-a][1,4]diazonin]-12′-yl)oxy)methyl isobutyrate] | 15.5 | –
13 | COC1=NO[C@@]2(CC[C@H](C)N3C[C@H]2n2cc(C(=O)NCc4ccc(F)cc4F)c(=O)c(OCOC(=O)C(C)C)c2C3=O)C1 [Example 108, (((3′S,5S,7′R)-10′-((2,4-difluorobenzyl)carbamoyl)-3-methoxy-3′-methyl-1′,11′-dioxo-1′,4′,5′,11′-tetrahydro-3′H,4H,7′H-spiro[isoxazole-5,6′-[2,7]methanopyrido[1,2-a][1,4]diazonin]-12′-yl)oxy)methyl isobutyrate] | 21.7 | –
14 | COC1=NO[C@@]2(CC[C@H](C)N3C[C@H]2n2cc(C(=O)NCc4ccc(F)cc4F)c(=O)c(OCOC(=O)OC[C@H](C)OC)c2C3=O)C1 [Example 220, (((3′S,5S,7′R)-10′-((2,4-difluorobenzyl)carbamoyl)-3-methoxy-3′-methyl-1′,11′-dioxo-1′,4′,5′,11′-tetrahydro-3′H,4H,7′H-spiro[isoxazole-5,6′-[2,7]methanopyrido[1,2-a][1,4]diazonin]-12′-yl)oxy)methyl ((S)-2-methoxypropyl) carbonate] | 41.6 | –
15 | COC1=NO[C@@]2(CC[C@H](C)N3C[C@H]2n2cc(C(=O)NCc4ccc(F)cc4F)c(=O)c(OCOC(=O)OCCCCCCC(C)C)c2C3=O)C1 [Example 210, (((3′S,5S,7′R)-10′-((2,4-difluorobenzyl)carbamoyl)-3-methoxy-3′-methyl-1′,11′-dioxo-1′,4′,5′,11′-tetrahydro-3′H,4H,7′H-spiro[isoxazole-5,6′-[2,7]methanopyrido[1,2-a][1,4]diazonin]-12′-yl)oxy)methyl (7-methyloctyl) carbonate] | ≥ 50 | –
16 | COC(=O)Oc1c2n(cc(C(=O)NCc3ccc(F)cc3F)c1=O)[C@@H]1CN(C2=O)[C@@H](C)CC[C@]12CC(OC)=NO2 [Example 122, (03'S,5S,7′R)-10′-((2,4-difluorobenzyl)carbamoyl)-3-methoxy-3′-methyl-1′,11′-dioxo-1′,4′,5′,11′-tetrahydro-3′H,4H,7′H-spiro[isoxazole-5,6′-[2,7]methanopyrido[1,2-a][1,4]diazonin]-12′-yl methyl carbonate] | 19.8 | –
17 | CO[C@@H](C)COC(=O)OCOc1c2n(cc(C(=O)NCc3ccc(F)cc3F)c1=O)[C@@H]1CN(C2=O)[C@@H](C)CC[C@]12CC(C)=NO2 [Example 219, (((3′S,5S,7′R)-10′-((2,4-difluorobenzyl)carbamoyl)-3,3′-dimethyl-1′,11′-dioxo-1′,4′,5′,11′-tetrahydro-3′H,4H,7′H-spiro[isoxazole-5,6′-[2,7]methanopyrido[1,2-a][1,4]diazonin]-12′-yl)oxy)methyl ((S)-2-methoxypropyl) carbonate] | 33.9 | –
